Here are results for nine compounds from article PMC11227536, “Modulation of the Meisenheimer complex metabolism of nitro-benzothiazinones by targeted C-6 substitution” (Communications Chemistry, 2024).

Holding throughout (assay type): cell-based
Assay [1] has as its system Mycobacterium vaccae (JMRC:STI:10670). Description: MIC determination. The conditions noted are these: for MIC: Mycolicibacterium vaccae, n = 1; for Selectivity index: ratio between CC50 (HeLa) and MIC M. vaccae; for antimycobacterial activity (in words): M. vaccae. How it is done:
(§1) Supplementary Method 5: Biological Assays
(§2) Minimal inhibitory concentrations were determined against Mycobacterium vaccae (JMRC:STI:10670) and Mycobacterium smegmatis (JMRC:STH:00056). M. vaccae and M. smegmatis cultures were grown 48 h at 32 °C in a medium consisting of glycerol (1%), beef extract (0.5%), peptone from casein (0.5%) and sodium chloride (0.3%). Serial dilutions of the DMSO test item solutions (1 mg∙mL -1) were prepared at 100 µL scale in 96 well plates in Mueller Hinton broth starting at 200 µg∙mL -1 (highest) to cover a final concentration range of 100 to 0.05 µg∙mL -1. Each plate was equipped with a series of DMSO and ciprofloxacin dilutions as quality controls. 96 well plates were inoculated with 100 µL diluted culture (Mueller Hinton bullion) at a final concentration of 5∙10 5 and incubated at 37 °C for 42 h. Growth/no growth was visually inspected.
(§3) 2. Proliferation and cytotoxicity assay
(§4) Cells and culture conditions
(§5) The following cell lines and media were used:
(§6) Cell line Cell culture medium
(§7) Cells were grown in the appropriate cell culture medium supplemented with 10 mL/L ultraglutamine 1 […]
(§8) heat inactivated fetal bovine serum (GIBCO Life Technologies 10270-106) at 37 °C in 5% CO 2 in high density polyethylene flasks (NUNC 156340).
(§9) To decide if the compounds have an antiproliferative and/or a cytotoxic effect on human cells, cell death and retardation of cell proliferation were assessed. Under our experimental conditions, the optical density measured from the CellTiter-Blue® reagent and methylene blue assay is proportional to the […]
The test substances were dissolved in DMSO and further diluted in the cell culture medium. The adherent cells were harvested at the logarithmic growth phase after soft trypsinization using 0.25% trypsin in PBS containing 0.02% EDTA (Biochrom KG L2163). For each experiment, approximately 10,000 cells were seeded with 0.1 mL culture medium per well of the 96-well microplates (HUVEC: flat bottomed NUNC 167008, K-562: round bottomed NUNC 163320). To test the antiproliferative

The test system of assay [2] is Mycobacterium smegmatis (JMRC:STH:00056). Description: MIC determination. The conditions noted are these: Mycolicibacterium smegmatis; n = 1. The procedure:
as §1
as §2, with “inspected. […]” for “inspected.”

In assay [3] the test system is K-562. Description: Proliferation assay. The conditions noted are these: Homo sapiens, K562; 72 h, n = 4. How it is done:
Supplementary Method 5: Biological Assays […]
as §3, §4, §5, §6, §7, §8, §9
The test substances were dissolved in DMSO and further diluted in the cell culture medium. The adherent cells were harvested at the logarithmic growth phase after soft trypsinization using 0.25% trypsin in PBS containing 0.02% EDTA (Biochrom KG L2163). For each experiment, approximately 10,000 cells were seeded with 0.1 mL culture medium per well of the 96-well microplates (HUVEC: flat bottomed NUNC 167008, K-562: round bottomed NUNC 163320). To test the antiproliferative […]
effect of test compounds on HUVEC and K-562, the cells were incubated for 72 hours in plates prepared with control and different dilutions of test substances. […]
of proliferation compared to the untreated control. […]
Cells were incubated with dilutions of the test substances in microplates for 72 hours at 37 °C in a humidified atmosphere and 5% CO 2. […]
cytotoxicity and the inhibition of cell proliferation. The number of viable cells was determined subsequent to staining with CellTiter-Blue® reagent or methylene blue.
K-562 cells: The influence of test substances on cell proliferation of K-562 was determined via the CellTiter-Blue® assay (PROMEGA). Briefly, viable cells are able to reduce the indicator dye resazurin […]
dye. Thus, formation of resorufin was followed by measuring absorption at 570 nm and subtracting absorption measured at 600 nm. […]
General remarks: Signals from the methylene blue and CellTiter-Blue® reagent are proportional to the number of viable cells. A repeat determination has been conducted in all experiments, four replicates were assayed. The calculations of the different values of GI 50 and CC 50 were performed with the software

Molecules are shown by their SMILES. Converted amounts (≈) assume the structure as drawn.

Consider `COC(=O)c1cc([N+](=O)[O-])c2sc(N3CCC4(CC3)OC[C@H](C)O4)nc(=O)c2c1` [Compound 6a], for which, in assay [1], the lowest concentration to inhibit growth (MIC) was 0.24 µM (≈ 0.101 µg/mL) and the Selectivity index is recorded as over 500. The same compound returned an MIC in assay [2] of 3.7 µM (≈ 1.56 µg/mL). This compound also showed a GI50 in assay [3] of 66.9 ± 12.6 µM.
For `CC(C)OC(=O)c1cc([N+](=O)[O-])c2sc(N3CCC4(CC3)OC[C@H](C)O4)nc(=O)c2c1` [Compound 6c], in assay [1], the minimal inhibitory concentration (MIC) amounted to 0.22 µM (≈ 0.0989 µg/mL) and the Selectivity index is recorded as over 500. The same compound came in with an MIC in assay [2] of 6.94 µM (≈ 3.12 µg/mL). In assay [3], this compound returned a GI50 of over 111 µM.
For `C[C@H]1COC2(CCN(c3nc(=O)c4cc(C(=O)N(C)C)cc([N+](=O)[O-])c4s3)CC2)O1` [Compound 7c], in that order: 28.8 µM (≈ 12.5 µg/mL), over 4, 230 µM (≈ 100 µg/mL) and over 115 µM.
For `CON(C)C(=O)c1cc([N+](=O)[O-])c2sc(N3CCC4(CC3)OC[C@H](C)O4)nc(=O)c2c1` [Compound 7f], in that order: 13.9 µM (≈ 6.26 µg/mL), over 8, 111 µM (≈ 50 µg/mL) and over 111 µM.
`C[C@H]1COC2(CCN(c3nc(=O)c4cc(C(=O)O)cc([N+](=O)[O-])c4s3)CC2)O1` [Compound 8]: in assay [1], the “antimycobacterial activity (in words)” value was “moderate activity”, inhibition of growth (MIC) required 0.98 µM (≈ 0.399 µg/mL) and the Selectivity index is listed as over 125. In assay [2], inhibition of growth (MIC) required 15.3 µM (≈ 6.23 µg/mL). This compound also came in with a concentration for 50% growth inhibition (GI50) in assay [3] of over 123 µM.
Turning to `C[C@H]1COC2(CCN(c3nc(=O)c4cc(C#N)cc([N+](=O)[O-])c4s3)CC2)O1` [Compound 9], in assay [1], the “antimycobacterial activity (in words)” value was “similarly active as BTZ-043 (1)”, the MIC was found to be 0.016 µM (≈ 0.00621 µg/mL) and the Selectivity index is listed as over 8062. For the same compound, the minimal inhibitory concentration (MIC) in assay [2] was determined as 0.13 µM (≈ 0.0505 µg/mL). In assay [3], this compound gave a concentration for 50% growth inhibition (GI50) of 94.4 ± 5.9 µM.
For `C[C@H]1COC2(CCN(c3nc(=O)c4cc(I)cc([N+](=O)[O-])c4s3)CC2)O1` [Compound 10], in that order: “similarly active as BTZ-043 (1)”, 0.006 µM (≈ 0.00294 µg/mL), over 16114, 0.1 µM (≈ 0.0489 µg/mL) and over 102 µM.
In the same order, the values of `C[C@H]1COC2(CCN(c3nc(=O)c4cc(Br)cc([N+](=O)[O-])c4s3)CC2)O1` [Compound 11] are “similarly active as BTZ-043 (1)”, 0.004 µM (≈ 0.00177 µg/mL), over 31236, 0.057 µM (≈ 0.0252 µg/mL) and over 113 µM.
For `C[C@H]1COC2(CCN(c3nc(=O)c4cccc([N+](=O)[O-])c4s3)CC2)O1` [Compound 23], in assay [1], the “antimycobacterial activity (in words)” value is recorded as “significantly lower activity than 1” and the Selectivity index is listed as over 125. The compound further gave a minimal inhibitory concentration (MIC) in assay [1] (42 h) of 1.1 µM (≈ 0.4 µg/mL). This compound gave an MIC in assay [2] of 8.59 µM (≈ 3.12 µg/mL). Also, the GI50 in assay [3] is over 138 µM.
